Measured values reported in patent US9150568B2, “Compositions and methods for modulating FXR” (NOVARTIS AG, priority 2010, dated 2015).

molecular target: T1, human Farnesoid X Receptor (FXR) ligand binding domain (GST-FXR LBD) (Homo sapiens, UniProt Q96RI1); experiment: Human GST-FXR LBD co-activator interaction assay (HTRF); assay type: biochemical; conditions: not given
T1 construct: purchased Invitrogen
T1 sequence (Q96RI1 193-472 isoform Q96RI1-2): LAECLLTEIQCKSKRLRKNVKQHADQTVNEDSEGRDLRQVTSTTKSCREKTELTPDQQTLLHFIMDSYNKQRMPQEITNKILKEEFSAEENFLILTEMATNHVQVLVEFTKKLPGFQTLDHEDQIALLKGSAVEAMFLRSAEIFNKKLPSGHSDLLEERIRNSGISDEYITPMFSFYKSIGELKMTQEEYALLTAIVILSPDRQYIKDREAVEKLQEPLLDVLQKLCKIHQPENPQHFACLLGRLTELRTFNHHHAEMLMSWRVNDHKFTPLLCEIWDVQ
Excerpt: Human GST-FXR LBD Co-activator interaction Assay. The FXR HTRF assay is a biochemical assay measuring the interaction between FXR and a coactivator protein (SRC1). The ligand-induced interaction with a coactivator protein is a critical step in transcriptional activation by FXR. Thus, this is an assay designed to measure FXR agonist activity of compounds.
The ligand-dependent interaction between GST-FXR LBD and a peptide derived from Steroid Receptor Coactivator-1 (SRC-1) was monitored by Fluorescence Resonance Energy Transfer (FRET). […] Test compounds (in DMSO solution) and detection reagents (anti-GST-Cryptate labeled antibody and Streptavidin-XL665 conjugate; CisBio) were added in assay buffer containing 50 mM KF.
A negative control (without Streptavidin-XL665) was run with each assay and represented the background fluorescence. A reference FXR agonist, GW4064, was included in each experiment as positive control. The efficacy of each test compound was compared to that of GW4064. At each concentration, the relative activity of the test compound was expressed as Response %=(Rsample−RDMSO)/(Rpositive−RDMSO), where Rsample is the HTRF response (expressed in Delta F %) for the test compound, Rpositive is the maximal response for GW4064 at saturating concentrations, and RDMSO is the response for DMSO control. The EC50 values were calculated using GraphPad Prism (GraphPad Software) using non-linear regression curve fit (log(agonist) vs. response—variable slope (four parameters)).

SMILES	EC50 [nM]
Cc1cc(C(=O)O)cnc1N1C2CC[C@H]1C[C@H](OCc1c(-c3ccccc3OC(F)(F)F)noc1C1CC1)C2 [Example 19-4B]	5

same assay, conditions: GST-FXR LBD / biotin-SRC-1 peptide FRET; response relative to GW4064; read-out: FXR Co-activator interaction assay (EC50)

SMILES	EC50 [nM]
O=C(O)c1cnc(N2C3CC[C@H]2C[C@H](OCc2c(-c4ccccc4OC(F)(F)F)noc2C2CC2)C3)c(C2CC2)c1 [Example 18-2B, 5-cyclopropyl-6-((1S,3R)-3-((5-cyclopropyl-3-(2-(trifluoromethoxy)phenyl)isoxazol-4-yl)methoxy)-8-azabicyclo[3.2.1]octan-8-yl)nicotinic acid]	7
COC(=O)c1ccc(N2C3CC[C@H]2C[C@H](OCc2c(-c4ccccc4OC(F)(F)F)noc2C2CC2)C3)nc1 [Example 18-3A]	8
O=C(O)c1ccc(N2[C@@H]3CC[C@H]2C[C@H](OCc2c(-c4ccccc4OC(F)(F)F)noc2C2CC2)C3)nc1 [Example 18-3B, 6-[(1R,5S)-3-({5-cyclopropyl-3-[2-(trifluoromethoxy)phenyl]-1,2-oxazol-4-yl}methoxy)-8-azabicyclo[3.2.1]octan-8-yl]pyridine-3-carboxylic acid]	4
COC(=O)c1cnc(N2C3CC[C@H]2C[C@H](OCc2c(-c4ccccc4OC(F)(F)F)noc2C2CC2)C3)nc1 [Example 18-4A]	20
O=C(O)c1cnc(N2C3CC[C@H]2C[C@H](OCc2c(-c4ccccc4OC(F)(F)F)noc2C2CC2)C3)nc1 [Example 18-4B]	10
COC(=O)c1cnc(N2C3CC[C@H]2C[C@H](OCc2c(-c4ccccc4OC(F)(F)F)noc2C2CC2)C3)cn1 [Example 18-5A]	20
O=C(O)c1cnc(N2C3CC[C@H]2C[C@H](OCc2c(-c4ccccc4OC(F)(F)F)noc2C2CC2)C3)cn1 [Example 18-5B]	3
COC(=O)c1ccc(N2C3CC[C@H]2C[C@H](OCc2c(-c4ccccc4C(F)(F)F)noc2C2CC2)C3)nc1 [Example 18-6A]	50
O=C(O)c1ccc(N2[C@@H]3CC[C@H]2C[C@H](OCc2c(-c4ccccc4C(F)(F)F)noc2C2CC2)C3)nc1 [Example 18-6B, 6-[(1R,5S)-3-({5-cyclopropyl-3-[2-(trifluoromethyl)phenyl]-1,2-oxazol-4-yl}methoxy)-8-azabicyclo[3.2.1]octan-8-yl]pyridine-3-carboxylic acid]	5
COC(=O)c1cc(C)nc(N2C3CC[C@H]2C[C@H](OCc2c(-c4ccccc4OC(F)(F)F)noc2C2CC2)C3)n1 [Example 18-7A]	18
Cc1cc(C(=O)O)nc(N2C3CC[C@H]2C[C@H](OCc2c(-c4ccccc4OC(F)(F)F)noc2C2CC2)C3)n1 [Example 18-7B]	2
COC(=O)Cc1ccc(N2C3CC[C@H]2C[C@H](OCc2c(-c4ccccc4OC(F)(F)F)noc2C2CC2)C3)nc1 [Example 19-1A]	180
O=C(O)Cc1ccc(N2C3CC[C@H]2C[C@H](OCc2c(-c4ccccc4OC(F)(F)F)noc2C2CC2)C3)nc1 [Example 19-1B]	40
COC(=O)c1cnc(N2C3CC[C@H]2C[C@H](OCc2c(-c4ccccc4OC(F)(F)F)noc2C2CC2)C3)nc1C(F)(F)F [Example 19-2A]	80
O=C(O)c1cnc(N2C3CC[C@H]2C[C@H](OCc2c(-c4ccccc4OC(F)(F)F)noc2C2CC2)C3)nc1C(F)(F)F [Example 19-2B]	20
COC(=O)c1cnc(N2C3CC[C@H]2C[C@H](OCc2c(-c4ccccc4OC(F)(F)F)noc2C2CC2)C3)cc1C(F)(F)F [Example 19-3A]	90
O=C(O)c1cnc(N2C3CC[C@H]2C[C@H](OCc2c(-c4ccccc4OC(F)(F)F)noc2C2CC2)C3)cc1C(F)(F)F [Example 19-3B]	10
COC(=O)c1cnc(N2C3CC[C@H]2C[C@H](OCc2c(-c4ccccc4OC(F)(F)F)noc2C2CC2)C3)c(C)c1 [Example 19-4A]	70
COC(=O)c1cncc(N2C3CC[C@H]2C[C@H](OCc2c(-c4ccccc4OC(F)(F)F)noc2C2CC2)C3)n1 [Example 19-5A]	200
O=C(O)c1cncc(N2C3CC[C@H]2C[C@H](OCc2c(-c4ccccc4OC(F)(F)F)noc2C2CC2)C3)n1 [Example 19-5B]	9

SMILES	EC50 [nM]
COC(=O)c1ccnc(N2C3CC[C@H]2C[C@H](OCc2c(-c4ccccc4OC(F)(F)F)noc2C2CC2)C3)n1 [Example 19-6A]	50
O=C(O)c1ccnc(N2C3CC[C@H]2C[C@H](OCc2c(-c4ccccc4OC(F)(F)F)noc2C2CC2)C3)n1 [Example 19-6B]	7
COC(=O)c1cccc(N2C3CC[C@H]2C[C@H](OCc2c(-c4ccccc4OC(F)(F)F)noc2C2CC2)C3)n1 [Example 19-7A]	10
O=C(O)c1cccc(N2C3CC[C@H]2C[C@H](OCc2c(-c4ccccc4OC(F)(F)F)noc2C2CC2)C3)n1 [Example 19-7B]	3
COC(=O)c1ccnc(N2C3CC[C@H]2CC(OCc2c(-c4ccccc4C(F)(F)F)noc2C2CC2)C3)c1 (some centres unmarked) [Example 20A]	170
O=C(O)c1ccnc(N2C3CC[C@H]2CC(OCc2c(-c4ccccc4C(F)(F)F)noc2C2CC2)C3)c1 (some centres unmarked) [Example 20B, 2-(3-((5-cyclopropyl-3-(2-(trifluoromethyl)phenyl)isoxazol-4-yl)methox)-8-azabicyclo[3.2.1]octan-8-yl)isonicotinic acid]	330
COC(=O)c1cc(C)nc(N2C3CC[C@H]2CC(OCc2c(-c4ccccc4C(F)(F)F)noc2C2CC2)C3)c1 (some centres unmarked) [Example 21-1A]	300
Cc1cc(C(=O)O)cc(N2C3CC[C@H]2CC(OCc2c(-c4ccccc4C(F)(F)F)noc2C2CC2)C3)n1 (some centres unmarked) [Example 21-1B]	260
COC(=O)c1cnc(N2C3CC[C@H]2CC(OCc2c(-c4ccccc4C(F)(F)F)noc2C2CC2)C3)nc1 (some centres unmarked) [Example 21-2A]	120
O=C(O)c1cnc(N2C3CC[C@H]2CC(OCc2c(-c4ccccc4C(F)(F)F)noc2C2CC2)C3)nc1 (some centres unmarked) [Example 21-2B]	10
COC(=O)c1cnc(N2C3CC[C@H]2CC(OCc2c(-c4ccccc4C(F)(F)F)noc2C2CC2)C3)cn1 (some centres unmarked) [Example 21-3A]	180
O=C(O)c1cnc(N2C3CC[C@H]2CC(OCc2c(-c4ccccc4C(F)(F)F)noc2C2CC2)C3)cn1 (some centres unmarked) [Example 21-3B]	9
COC(=O)c1cnc(N2C3CC[C@H]2CC(OCc2c(-c4ccccc4C(F)(F)F)noc2C2CC2)C3)cc1C(F)(F)F (some centres unmarked) [Example 21-4A]	250
O=C(O)c1cnc(N2C3CC[C@H]2CC(OCc2c(-c4ccccc4C(F)(F)F)noc2C2CC2)C3)cc1C(F)(F)F (some centres unmarked) [Example 21-4B]	20
COC(=O)c1ccnc(N2C3CC[C@H]2CC(OCc2c(-c4ccccc4C(F)(F)F)noc2C2CC2)C3)n1 (some centres unmarked) [Example 21-5A]	110
O=C(O)c1ccnc(N2C3CC[C@H]2CC(OCc2c(-c4ccccc4C(F)(F)F)noc2C2CC2)C3)n1 (some centres unmarked) [Example 21-5B]	10
COC(=O)c1cccc(N2C3CC[C@H]2CC(OCc2c(-c4ccccc4C(F)(F)F)noc2C2CC2)C3)n1 (some centres unmarked) [Example 21-6A]	60
O=C(O)c1cccc(N2C3CC[C@H]2CC(OCc2c(-c4ccccc4C(F)(F)F)noc2C2CC2)C3)n1 (some centres unmarked) [Example 21-6B]	16
COC(=O)c1cnc(N2C3CC[C@H]2CC(OCc2c(-c4ccccc4OC(F)F)noc2C2CC2)C3)cc1C(F)(F)F (some centres unmarked) [Example 22-1A]	530
O=C(O)c1cnc(N2C3CC[C@H]2CC(OCc2c(-c4ccccc4OC(F)F)noc2C2CC2)C3)cc1C(F)(F)F (some centres unmarked) [Example 22-1B]	20
